Columns and labels:
gastric epithelial cell = test: N-acetyl neuromatic acid (NANA) in gastric juice of pylorus-ligated rats (gastric epithelial cell stabilizing effect); type: in vivo, rat (male Donryu strain); set-up: unit not given here; conditions: 200 mg./kg. orally, three times a day for 5 days, and after pylorus ligation, 8 h ligation
Procedure: (§1) Male Donryu strain rats, weighing about 200 g., were divided into five groups. […] On the fifth day the animals were fasted for 24 hours, and submitted to pylorus ligation under light ether anethesia.
(§2) The drugs were given just after pylorus ligation orally. After 8 hours of ligation, the rats were sacrificed and gastric juice was collected.

gastric mucosa = test: Gastric errosion induced by 8 hours of pylorus ligation; type: in vivo, rat (male Donryu strain); conditions: 200 mg./kg. orally
Procedure: as §1, §2

[1] = tested on: carrageenin-induced rat paw edema; test: Carrageenin-induced rat paw edema; type: in vivo, rat (Wistar); conditions: 300 mg./kg. per os
Procedure: To study the effect of the present compound on carrageenin-induced rat paw edema, the method of C. A. Winter (J. Pharmacol 141,369, (1963)) was applied. Wistar rats, weighing about 140 g. were used.
The present compound (III), α-bisabolol and farnesyl carboxylic acid were administered at a dosage of 300 mg./kg. (per os.) using a 1% CMC solution as the vehicle. The % inhibition was calculated as follows: [formula]

stress ulcer = test: Stress ulcer; type: in vivo, rat (male Wistar strain); conditions: 100 mg./kg. per os, 30 minutes before the stress; 18 hours stress
Procedure: To study the anti-ulcerative actions of the test drugs in experimental animals, the stress ulcer was selected. Male rats of the Wistar strain, weighing 200-250 g. were subjected to stress according to Takagi et. al. (Chem. Pharm. Bull 12,465. 1964). The four test drugs, the present compound (III), α-bisabolol (I), farnesyl carboxylic acid (II) and gefarnate were suspended in 1% methyl cellulose and were administered to the rats in a dose of 100 mg./kg. body weight per os, 30 minutes before the stress. The animals were placed in the stress box and immersed in water bath of 20°-25° C. to the level of the xiphoid process for 18 hours.
At the end of the stress the animals were removed from the stress box, killed by a blow on the head, and the stomach removed. The stomach was filled with 1% formalin solution, placed in 1% formalin solution for 15 minutes and was then cut open along the greater curvature and examined for lesions to obtain the ulcer index. The ulcer index was determined in six grades (0-5; 5 implying perforation of stomach).

5-HT induced ulcer = test: 5-HT induced ulcer; type: in vivo, rat
Procedure: In the following experiments, the effects of test drugs on 5-HT induced ulcer were investigated. To induce the gastric lesion, rats were fasted for 24 hours before injection of 5-HT 30 mg./kg. S.C. The animals were sacrificed after 20 hours of 5-HT injections, and examined for lesion. The dose and route of administration of test drugs are the same as experiment 3. In the experiment, the area of lesions (mm.^2) were measured as the ulcer-index.

aspirin ulcer = test: Aspirin-induced gastric mucosal lesion (aspirin ulcer); type: in vivo; conditions: aspirin 100 mg./kg. per os
Procedure: (§3) Each drug in Table 5, suspended with TWEEN 80 and 1% CMC solution, was given either intraduodenally immediately after pylorus ligation (aspirin ulcer) or orally (indomethacin ulcer) at the volume of 0.5 ml./100 g. Aspirin was given orally 10 min. after pylorus ligation. Indomethacin was given orally 10 min. after drug administration. All animals were sacrificed 7 hrs. after operation.

indomethacin ulcer = test: Indomethacin-induced gastric mucosal lesion (indomethacin ulcer); type: in vivo; conditions: 300 mg./kg. orally; indomethacin 20 mg./kg. per os
Procedure: The preventive activity of new compound (III) against the formation of gastric mucosal lesion induced by the gastric ulcerogenic, anti-inflammatory drugs, indomethacin and aspirin was evaluated according to Okabe et. al. (Jap. J. Pharmacol. 24 169 p. 1974, Amer. J. Dig. Dis. 20 626 1975).
as §3

[2] = LD50 by the up and down method; type: in vivo; conditions: mouse, in vivo, po; per os; observations for 24 hours
Procedure: (§4) The LD50 value of the present compound in ddY strain mice was determined by the up and down method, with observations carried out for 24 hours.
(§5) The test drugs used in this experiment were suspended in 1% methyl cellulose and were given orally.

ddY strain mice = test: LD50 by the up and down method; type: in vivo; conditions: per os; ratio of LD50
Procedure: as §4, §5

[3] = Other pharmacological experiment (mucosal stabilizing, anti-inflammative, wound-healing); conditions: another experiment, no data shown
Chemical stability = type: physicochemical
[4] = cited from earlier work; for sedative or depressive activities: Ann. Pharm. France, 33, 229 ('75); for anti-inflammative and anti-ulcerative activities: literature

## CC(C)=CCCC(C)=CCCC(C)=CCC(=O)OC(C)(CCC=C(C)C)C1CC=C(C)CC1 (stereo not shown) [Compound (III), 4,8,12-1,5-dimethyl-1-(4-methyl-3-cyclohexenyl)-4-hexenyl ester of 4,8,12-trimethyl-3,7,11-tridecatrienoic acid]
Gastric epithelial cell
  Amounts of NANA, bond: 71.8
  Amounts of NANA, free: 16.2
  Amounts of NANA, total: 88.9
Gastric mucosa
  damage to the gastric mucosa (gastric errosion): did not produce any damage to the gastric mucosa
[1]
  Increase in % of paw edema: 60.4%
  Maximum % Inhibition: 39.6%
  increased rate of paw-edema (fraction): 0.604
Stress ulcer
  score (ulcer index, grades 0-5): 1.5 ± 0.50
5-HT induced ulcer; 100 mg./kg.
  inhibition of the occurrence of lesions: inhibits the occurrence of lesions completely
5-HT induced ulcer; 100 mg./kg. per os, 5-HT 30 mg./kg. S.C., 20 hours
  Ulcer Index (area of lesions): 0 mm.^2
Aspirin ulcer; 100 mg./kg. intraduodenally
  Inhibition: 29.8%
  Ulcer Index, means ± s.e.: 21.4 ± 4.4 mm.^2
Aspirin ulcer; 300 mg./kg. intraduodenally
  Inhibition: 44.6%
  Ulcer Index, means ± s.e.: 16.9 ± 3.6 mm.^2
Aspirin ulcer; 1000 mg./kg. intraduodenally
  Inhibition: 65.2%
  Ulcer Index, means ± s.e.: 10.6 ± 2.2 mm.^2
Indomethacin ulcer
  Inhibition: 42.6%
  Ulcer Index, means ± s.e.: 26.4 ± 5.4 mm.^2
[2]
  LD50 at 24 h: 24.1 mg/kg
ddY strain mice
  toxicity, times less than that of α-bisabolol and farnesyl carboxylic acid: 6-7 times
[3]
  mucosal stabilizing, anti-inflammative and wound-healing activities: possess mucosal stabilizing anti-inflammative, and wound-healing activities
Chemical stability
  chemical stability: chemically stable

## CC(C)=CCCC(C)=CCCC(C)=CCC(=O)O [Farnesyl carboxylic acid, 4,8,12-trimethyl-3,7,11-tridecatrienoic acid]
Gastric epithelial cell
  Amounts of NANA, bond: 80.6
  Amounts of NANA, free: 18.3
  Amounts of NANA, total: 98.6
[1]
  Increase in % of paw edema: 76.7%
  Maximum % Inhibition: 23.3%
  increased rate of paw-edema (fraction): 0.767
Stress ulcer
  score (ulcer index, grades 0-5): 2.33 ± 0.84
[2]
  LD50 at 24 h: 4.26 mg/kg

## CC(C)=CCC/C(C)=C/CC/C(C)=C/CCC(=O)OC/C=C(\C)CCC=C(C)C [Gefarnate]
Gastric epithelial cell
  Amounts of NANA, bond: 72.8
  Amounts of NANA, free: 20.8
  Amounts of NANA, total: 93.6
Stress ulcer
  score (ulcer index, grades 0-5): 3.83 ± 0.73
Aspirin ulcer; 100 mg./kg. intraduodenally
  Inhibition: 22.3%
  Ulcer Index, means ± s.e.: 23.7 ± 3.2 mm.^2
Aspirin ulcer; 300 mg./kg. intraduodenally
  Inhibition: 49.9%
  Ulcer Index, means ± s.e.: 16.2 ± 2.9 mm.^2
Aspirin ulcer; 1000 mg./kg. intraduodenally
  Inhibition: 49.5%
  Ulcer Index, means ± s.e.: 15.4 ± 4.4 mm.^2

## C=CC(C)=CCC=C(C)CCC=C(C)C [farnesene]
[4]
  sedative or depressive activities: sedative or depressive activities
  anti-inflammative and anti-ulcerative activities: anti-inflammative and anti-ulcerative activities

## CC(C)=CCCC(C)(O)C1CC=C(C)CC1 (stereo not drawn) [α-Bisabolol, α-bisabolol]
Gastric epithelial cell
  Amounts of NANA, bond: 136.3
  Amounts of NANA, free: 12.4
  Amounts of NANA, total: 148.7
[1]
  Increase in % of paw edema: 88.1%
  Maximum % Inhibition: 11.9%
  increased rate of paw-edema (fraction): 0.881
Stress ulcer
  score (ulcer index, grades 0-5): 4.0 ± 0.25
[2]
  LD50 at 24 h: 3.67 mg/kg
[4]
  sedative or depressive activities: sedative or depressive activities
  anti-inflammative and anti-ulcerative activities: anti-inflammative and anti-ulcerative activities
